Assay results reported in ChEMBL document CHEMBL3769368, “Semi-synthesis and anti-tumor evaluation of novel 25-hydroxyprotopanaxadiol derivatives as apoptosis inducing agents” (Medchemcomm, 2015).
Activity calls are given as the source filed them. No cut-off for these calls is given here.

What was measured:
DU-145 [1] = test: Induction of apoptosis in human DU145 cells assessed as formation of apoptotic bodies at 20 uM after 12 hrs by DAPI staining-based fluorescence microscopy; format: functional, cell-based
[2] = Antiproliferative activity against human PC3 cells after 48 hrs by MTT assay; format: functional, cell-based; conditions: PC-3, 48 h
MDA-MB-231 = test: Antiproliferative activity against human MDA-MB-231 cells after 48 hrs by MTT assay; format: functional, cell-based; conditions: MDA-MB-231, 48 h
DU-145 [3] = test: Induction of morphological changes in human DU145 cells assessed as formation of bubble-shaped regions at 20 uM after 12 hrs by inverted microscopy; format: functional, cell-based
[4] = Cytotoxicity against human IOSE-144 cells after 48 hrs by MTT assay; format: cell-based; conditions: IOSE-144, 48 h
DU-145 [5] = test: Induction of cell cycle arrest in human DU145 cells assessed as accumulation at Sub G1 phase at 20 uM after 6 hrs by propidium iodide staining-based flow cytometry (reference value: 1.57 to 1.59%); format: functional
DU-145 [6] = test: Induction of morphological changes in human DU145 cells assessed as spherical cells at 20 uM after 12 hrs by inverted microscopy; format: functional, cell-based
[7] = Antiproliferative activity against human BGC823 cells after 48 hrs by MTT assay; format: functional, cell-based; conditions: BGC-823, 48 h
DU-145 [8] = test: Induction of apoptosis in human DU145 cells assessed as chromatin nucleus condensation at 20 uM after 12 hrs by DAPI staining-based fluorescence microscopy; format: functional, cell-based
DU-145 [9] = test: Induction of morphological changes in human DU145 cells assessed as decrease in cell size at 20 uM after 12 hrs by inverted microscopy; format: functional, cell-based
DU-145 [10] = test: Induction of cell cycle arrest in human DU145 cells assessed as accumulation at Sub G1 phase at 20 uM after 12 hrs by propidium iodide staining-based flow cytometry (reference value: 1.57 to 1.59%); format: functional
[11] = Antiproliferative activity against human alpha-2 cells after 48 hrs by MTT assay; format: functional, cell-based
[12] = Antiproliferative activity against human DU145 cells after 48 hrs by MTT assay; format: functional, cell-based; conditions: DU-145, 48 h
DU-145 [13] = test: Induction of cell cycle arrest in human DU145 cells assessed as accumulation at Sub G1 phase at 20 uM after 18 hrs by propidium iodide staining-based flow cytometry (reference value: 1.57 to 1.59%); format: functional
DU-145 [14] = test: Induction of cell cycle arrest in human DU145 cells assessed as accumulation at Sub G1 phase at 20 uM after 3 hrs by propidium iodide staining-based flow cytometry (reference value: 1.57 to 1.59%); format: functional

Structure (SMILES)	Activity (DU-145 [1])	IC50 [2] [µM]	IC50 (MDA-MB-231) [µM]	Activity (DU-145 [3])	IC50 [4] [µM]	Activity (DU-145 [5]) [%]	Activity (DU-145 [6])	IC50 [7] [µM]	Activity (DU-145 [8])	Activity (DU-145 [9])	Activity (DU-145 [10]) [%]	IC50 [11] [µM]	IC50 [12] [µM]	Activity (DU-145 [13]) [%]	Activity (DU-145 [14]) [%]
CC(C)(O)CCC[C@@](C)(O)[C@H]1CC[C@]2(C)[C@@H]1[C@H](O)C[C@@H]1[C@@]3(C)CC[C@H](OC(=O)[C@@H](N)CCC(=O)O)C(C)(C)[C@@H]3CC[C@]12C	Active	9.9	4.2	Active	> 100	9.81	Active	6.9	Active	Active	13.39	6.2	6.5	30.53	–
CC(C)(O)CCC[C@@](C)(O)[C@H]1CC[C@]2(C)[C@@H]1[C@H](O)C[C@@H]1[C@@]3(C)CC[C@H](OC(=O)[C@@H](N)CCCNC(=N)N)C(C)(C)[C@@H]3CC[C@]12C	Active	6.1	4.2	Active	> 100	16.29	Active	4.6	Active	Active	34.07	7.1	5.5	–	7.37
CC(C)(O)CCC[C@@](C)(O)[C@H]1CC[C@]2(C)[C@@H]1[C@H](O)C[C@@H]1[C@@]3(C)CC[C@H](OC(=O)[C@@H](N)Cc4cnc[nH]4)C(C)(C)[C@@H]3CC[C@]12C	–	10	5.3	–	> 100	–	–	12	–	–	–	11	9.6	–	–
CC(C)(O)CCC[C@@](C)(O)[C@H]1CC[C@]2(C)[C@@H]1[C@H](O)C[C@@H]1[C@@]3(C)CC[C@H](O)C(C)(C)[C@@H]3CC[C@]12C	–	57	33	–	> 100	–	–	46	–	–	–	48	53	–	–
CC(C)C[C@H](N)C(=O)O[C@H]1CC[C@]2(C)[C@H]3C[C@@H](O)[C@@H]4[C@@H]([C@](C)(O)CCCC(C)(C)O)CC[C@@]4(C)[C@]3(C)CC[C@H]2C1(C)C	–	7.9	4.8	–	> 100	–	–	8.9	–	–	–	16	7.6	–	–
CC(C)(O)CCC[C@@](C)(O)[C@H]1CC[C@]2(C)[C@@H]1[C@H](O)C[C@@H]1[C@@]3(C)CC[C@H](OC(=O)[C@H](CCCNC(=N)N)NC(=O)OC(C)(C)C)C(C)(C)[C@@H]3CC[C@]12C	–	12	8	–	> 100	–	–	12	–	–	–	13	11	–	–
CC[C@H](C)[C@H](NC(=O)OC(C)(C)C)C(=O)O[C@@H]1C[C@@H]2[C@@]3(C)CC[C@H](O)C(C)(C)[C@@H]3CC[C@@]2(C)[C@]2(C)CC[C@H]([C@](C)(O)CCCC(C)(C)O)[C@@H]12	–	> 100	> 100	–	> 100	–	–	> 100	–	–	–	81	> 100	–	–
C[C@H](NC(=O)OC(C)(C)C)C(=O)O[C@@H]1C[C@@H]2[C@@]3(C)CC[C@H](O)C(C)(C)[C@@H]3CC[C@@]2(C)[C@]2(C)CC[C@H]([C@](C)(O)CCCC(C)(C)O)[C@@H]12	–	49	46	–	> 100	–	–	40	–	–	–	34	> 100	–	–
O=c1[nH]cc(F)c(=O)[nH]1 [FLUOROURACIL]	–	46	20	–	29	–	–	37	–	–	–	33	38	–	–
CC(C)(O)CCC[C@@](C)(O)[C@H]1CC[C@]2(C)[C@@H]1[C@H](OC(=O)[C@H](Cc1ccc(O)cc1)NC(=O)OC(C)(C)C)C[C@@H]1[C@@]3(C)CC[C@H](O)C(C)(C)[C@@H]3CC[C@]12C	–	63	29	–	> 100	–	–	90	–	–	–	84	> 100	–	–
CC(C)(O)CCC[C@@](C)(O)[C@H]1CC[C@]2(C)[C@@H]1[C@H](OC(=O)[C@H](Cc1cnc[nH]1)NC(=O)OC(C)(C)C)C[C@@H]1[C@@]3(C)CC[C@H](O)C(C)(C)[C@@H]3CC[C@]12C	–	86	23	–	> 100	–	–	38	–	–	–	72	> 100	–	–
C[C@@H](O)[C@H](NC(=O)OC(C)(C)C)C(=O)O[C@H]1CC[C@]2(C)[C@H]3C[C@@H](O)[C@@H]4[C@@H]([C@](C)(O)CCCC(C)(C)O)CC[C@@]4(C)[C@]3(C)CC[C@H]2C1(C)C	–	28	14	–	> 100	–	–	22	–	–	–	24	25	–	–
CC(C)(O)CCC[C@@](C)(O)[C@H]1CC[C@]2(C)[C@@H]1[C@H](O)C[C@@H]1[C@@]3(C)CC[C@H](OC(=O)[C@H](CCC(=O)OCc4ccccc4)NC(=O)OC(C)(C)C)C(C)(C)[C@@H]3CC[C@]12C	–	29	19	–	> 100	–	–	23	–	–	–	28	54	–	–
CC(C)C[C@H](NC(=O)OC(C)(C)C)C(=O)O[C@H]1CC[C@]2(C)[C@H]3C[C@@H](O)[C@@H]4[C@@H]([C@](C)(O)CCCC(C)(C)O)CC[C@@]4(C)[C@]3(C)CC[C@H]2C1(C)C	–	41	17	–	> 100	–	–	24	–	–	–	32	26	–	–
CC(C)C[C@H](NC(=O)OC(C)(C)C)C(=O)O[C@@H]1C[C@@H]2[C@@]3(C)CC[C@H](O)C(C)(C)[C@@H]3CC[C@@]2(C)[C@]2(C)CC[C@H]([C@](C)(O)CCCC(C)(C)O)[C@@H]12	–	> 100	> 100	–	> 100	–	–	> 100	–	–	–	86	> 100	–	–
C[C@H](N)C(=O)O[C@H]1CC[C@]2(C)[C@H]3C[C@@H](O)[C@@H]4[C@@H]([C@](C)(O)CCCC(C)(C)O)CC[C@@]4(C)[C@]3(C)CC[C@H]2C1(C)C	–	7.6	4.8	–	> 100	–	–	7.9	–	–	–	11	8	–	–
C[C@@H](O)[C@H](N)C(=O)O[C@H]1CC[C@]2(C)[C@H]3C[C@@H](O)[C@@H]4[C@@H]([C@](C)(O)CCCC(C)(C)O)CC[C@@]4(C)[C@]3(C)CC[C@H]2C1(C)C	–	8.9	5.4	–	> 100	–	–	11	–	–	–	12	8.7	–	–
C[C@H](N)C(=O)O[C@@H]1C[C@@H]2[C@@]3(C)CC[C@H](O)C(C)(C)[C@@H]3CC[C@@]2(C)[C@]2(C)CC[C@H]([C@](C)(O)CCCC(C)(C)O)[C@@H]12	–	8.8	5.7	–	> 100	–	–	9	–	–	–	9.2	14	–	–
CC(C)(O)CCC[C@@](C)(O)[C@H]1CC[C@]2(C)[C@@H]1[C@H](O)C[C@@H]1[C@@]3(C)CC[C@H](OC(=O)[C@H](CO)NC(=O)OC(C)(C)C)C(C)(C)[C@@H]3CC[C@]12C	–	25	18	–	> 100	–	–	21	–	–	–	24	25	–	–
